“Also recorded” adds a separate entry of the source.
What was measured:
[1] = tested on: human corneal epithelial cells; assay: Morphologic evaluation and cell viability, cornea epithelial cells; type: cell-based
[2] = tested on: telomerase reverse transcriptase (TERT); assay: TERT immunohistochemistry of eye tissues; type: in vivo, rabbit
From the text: This was characterized by weak telomerase activity in the endothelial layer with an expression of limited number of endothelial cells.

[3] = Rabbit ocular pharmacokinetic model; type: in vivo
Protocol: At the end of the fifth day, blood, tear, cornea, anterior chamber fluid, iris and lens tissues were collected at 30, 60, 120, 240 and 480 minutes following the last administration of 4 μg/50 μl. […] According to the results of the drug analysis at the 30th minute, the highest drug concentrations of 215.56 ng in the corneal tissue, 4 ng in the anterior chamber and 14.12 ng in the iris were detected individually, proving that the drug passes into the corneal tissue after application to the corneal surface and reaches the intraocular tissues.

[4] = tested on: cornea endothelial cells; assay: Specular microscopy cornea endothelial cell count, TAED017 eye drops 6 months; type: in vivo, rabbit; conditions: for cell count, treatment vs control: 2nd and 5th months
From the text: 16-month-old male New Zealand rabbits were used in the study. […] When determining the starting age of rabbits and the duration of eye drop application (6 months), 16 months was chosen to correspond to adult human age, and the study period of 6 months was modeled as the period in which New Zealand rabbits aged 7.91 years (22.75 days for adult New Zealand rabbits, corresponding to 1 year for human age).
In FIGS. 12-15, data are shown as mean±standard error. The statistical evaluations are based on CD (cornea endothelia cell density) values. All CD values were corrected to the baseline measurement (month 0) of the respective rabbit and this correction was made as a percentage [(CD value/CD baseline value)*100]. GraphPad Prism 8.0.2 software was used for all statistical analyses and visualizations. The treatment of the rabbits at the respective dose was compared between the left (TAED017 treatment) and right (non-treated control) eye, both temporally and time and side dependent. For all analyses, “2-way ANOVA test for repeated measures” was used. For data sets with missing data, this analysis was set as “mixed-effect analysis” by the program. “Tukey” and “sidak” tests were used for posthoc analyses. The p values for these tests are adjusted p values.

[5] = tested on: human corneal endothelial cells; assay: Morphologic evaluation and cell viability, cornea endothelial cells; type: cell-based
Protocol: In the morphologic evaluation, the cells at different time periods (1 h, 4 h, 24 h) were observed following different concentrations of drug administration.

[6] = tested on: 3D organotypic corneal barrier; assay: 3D organotypic corneal barrier passage (LC-MS/MS); type: in vitro ADME; conditions: repeated drug administration
[7] = tested on: telomere length in Corneal Endothelial Cells (CEC); assay: Telomere length of corneal endothelial cells, treated versus untreated eyes; type: in vivo, rabbit; conditions: six months treatment
Protocol: IG. 18 illustrates a graph showing percentage of telomere length increases in treated eyes (L) versus control (untreated eyes, R), with increasing dosages of telomerase activator. […] (Cy3=Fluorescence signal of telomere probe, Hoescht=fluorescence of the nuclei, Average R=Average of the control eye).
To determine the mechanism by which treatment with TAED017 prevents Corneal Endothelial Cell (CEC) attrition, telomere lengths from CECs of both treated and untreated eyes were measured and compared.
We then evaluated whether the observed effect of telomere lengthening in CECs also occurred in other ocular tissues. Rabbit eyes were treated for six months with TAED017, (one eye of each rabbit was treated while the other eye remained untreated, as a control group).

[8] = molecular target: T1, telomerase (Homo sapiens, UniProt O14746); assay: Telomerase activity of cornea endothelial and epithelial cells; type: cell-based
T1 construct: telomerase activity was evaluated in cornea endothelial cell HCEC-B4G12; endogenous in cells; host or cells: HCEC-B4G12 (DSMZ ACC 647)

[9] = tested on: telomere length in corneal endothelial cells; assay: Telomere length (TAT analysis) in corneal endothelial cells from treated rabbits; type: in vivo, rabbit; conditions: 6 months
Protocol: Samples were received in paraffin.
The sample is filtered to remove collagen residues. Telomere lengths were assessed using Life Length's.
All measurements were performed in quintuplicate.

[10] = molecular target: T1, telomerase; assay: TeloTAGGG Telomerase PCR ELISA assay in HCEC-B4G12; type: cell-based; conditions: for % Telomerase Activity ± SD: 30 hours
Protocol: TeloTAGGG™ Telomerase PCR ELISA assay was performed as described by manufacturer (Sigma-Aldrich).

[11] = tested on: corneal endothelium; assay: Histopathology of corneal layer, treated rabbits; type: in vivo, rabbit
Protocol: Eye tissue was fixed with 4% formaldehyde and embedded in paraffin for the histopathological assessment and processed according to routine light microscope tissue processing methods. 5 μm tissue sections stained with Hematoxylin-Eosin (H&E) were examined and photographed by Leica image analyzing system (Leica, Germany). All specimens were evaluated individually by three histologists who were blinded to the drug type and the treatment times. Histopathology was also performed to evaluate the corneal opacity, neovascularization, inflammatory cell density, vessel size and edema. Moreover, lens structure, scleral, choroidal and macular changes were analyzed by histopathology.

[12] = tested on: corneal endothelial cells; assay: Corneal endothelial cell density (CD) by specular microscopy, rabbits treated 6 months; type: in vivo, rabbit
Protocol: All experiments were designed and carried out in a randomized, double blind manner using placebos. Rabbits were housed for one week prior to the study, fed on standard laboratory food and allowed free access to water in a room at standard temperature and humidity conditions in a 12-h light/12-h dark cycle.
All analyses were carried out using GraphPad Prism 5.0 (GraphPad Software, San Diego, CA, USA). Differences were considered to be significant at a level of P: : : : 0.001.

[13] = cornea endothelial and epithelial cells, 48 hours

T1 sequence (O14746 whole entry): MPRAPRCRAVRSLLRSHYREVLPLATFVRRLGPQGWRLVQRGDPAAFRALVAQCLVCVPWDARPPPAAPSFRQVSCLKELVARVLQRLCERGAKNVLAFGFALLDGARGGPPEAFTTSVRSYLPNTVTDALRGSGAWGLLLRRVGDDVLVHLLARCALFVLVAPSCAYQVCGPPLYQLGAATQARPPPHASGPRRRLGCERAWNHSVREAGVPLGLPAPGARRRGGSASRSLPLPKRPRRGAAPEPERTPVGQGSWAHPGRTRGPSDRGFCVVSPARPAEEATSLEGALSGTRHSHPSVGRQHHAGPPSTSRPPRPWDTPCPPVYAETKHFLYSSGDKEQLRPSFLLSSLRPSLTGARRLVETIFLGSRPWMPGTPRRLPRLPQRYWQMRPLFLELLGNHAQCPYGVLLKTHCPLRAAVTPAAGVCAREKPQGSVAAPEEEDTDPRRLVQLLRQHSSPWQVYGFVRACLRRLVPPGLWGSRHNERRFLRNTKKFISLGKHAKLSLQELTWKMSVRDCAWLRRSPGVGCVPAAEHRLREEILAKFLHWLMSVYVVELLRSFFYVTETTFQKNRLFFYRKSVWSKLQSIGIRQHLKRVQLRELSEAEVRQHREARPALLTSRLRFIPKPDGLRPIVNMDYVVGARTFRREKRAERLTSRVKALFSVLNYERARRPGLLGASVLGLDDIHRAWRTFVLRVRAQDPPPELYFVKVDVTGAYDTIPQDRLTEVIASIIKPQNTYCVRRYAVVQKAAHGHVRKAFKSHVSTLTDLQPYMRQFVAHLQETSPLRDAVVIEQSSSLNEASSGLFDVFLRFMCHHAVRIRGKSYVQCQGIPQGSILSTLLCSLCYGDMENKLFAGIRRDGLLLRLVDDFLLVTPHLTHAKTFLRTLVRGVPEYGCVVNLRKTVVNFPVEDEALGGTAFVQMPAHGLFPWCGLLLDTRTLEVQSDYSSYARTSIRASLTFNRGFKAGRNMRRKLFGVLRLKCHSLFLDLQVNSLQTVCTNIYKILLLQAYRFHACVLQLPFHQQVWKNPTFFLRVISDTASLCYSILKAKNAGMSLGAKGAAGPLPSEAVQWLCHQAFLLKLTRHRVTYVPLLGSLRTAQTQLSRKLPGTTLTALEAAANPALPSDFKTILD

CC(C)(O)[C@@H]1CC[C@](C)([C@H]2[C@@H](O)C[C@@]3(C)[C@@H]4C[C@H](O)[C@H]5C(C)(C)[C@@H](O)CC[C@@]56C[C@@]46CC[C@]23C)O1 [TAED017, Cycloastragenol]
concentration of first degenerative changes ([1]; after 24 hours): 320 µM | IC50 ([1]; cornea epithelial cells, read-out: IC50 dose (cell viability assays)): 740 µM | concentrations without morphological degenerative changes (safe) ([1]; epithelial cells): ≤ 160 μM | TERT immunoreactivity in cornea and iris, rank among dose groups ([2]; 80 μg/ml): lowest Tert immunoreactivity; also recorded: lowest levels | TERT immunostaining in the ciliary processes of iris tissue ([2]; 80 μg/ml): Prominent and dense tert antigen immunostaining | TERT staining in corneal endothelial cells ([2]; 160 μg and 240 μg/ml): continuous layer staining | TERT immunostaining in the ciliar processes ([2]; 160 μg/ml and 240 μg/ml): diffuse and very intense immunopositivity | TERT immunoreactivity in cornea and iris, rank among dose groups ([2]; 240 μg/ml): highest reactivity; also recorded: highest levels | TERT expression in cornea and iris, treated left eyes vs untreated ([2]; 80-240 μg/ml eye drops): significantly higher expression; also recorded: significantly elevated | TERT activity in the iris and choroidea vs untreated ([2]; treatment groups): significantly higher | Tmax, all eye tissues ([3]; 4 μg/50 μl twice a day 5 days, after last administration): 30 min | drug concentration in tears ([3]; 30 and 60 minutes): ≤ 3 ng | highest drug concentration, anterior chamber ([3]; 30th minute, 4 μg/50 μl): 4 ng | highest drug concentration, corneal tissue ([3]; 30th minute, 4 μg/50 μl): 215.56 ng | highest drug concentration, iris ([3]; 30th minute, 4 μg/50 μl): 14.12 ng | highest level of drug absorbed to the corneal surface ([3]; proportion of applied drug): 5.39% | proportion of the drug that passed into the eye, iris tissue ([3]; proportion of applied drug): 0.35% | cell count, difference between months in the treated eye ([4]; 4 μg/50 μl): no significant difference between the times | cell count, overall comparison treated left vs untreated right eye ([4]; 4 μg/50 μl twice a day, two way ANOVA): no statistically significant difference | cell count, treatment vs control ([4]; 4 μg/50 μl): no statistically significant difference | cell count, treatment vs control ([4]; 8 μg/50 μl): no difference | cell count, overall comparison treated left vs untreated right eye ([4]; 8 μg/50 μl, mixed-effects analysis): statistically significant difference | cell count, difference between months in the treated eye ([4]; 12 μg/50 μl): statistically significant difference between the 2nd and 6th month | cell count, treatment vs control ([4]; 12 μg/50 μl): no difference | cell count, overall comparison treated left vs untreated right eye ([4]; 12 μg/50 μl, mixed-effects analysis): statistically significant difference | morphologic change ([5]; 40 μM and 80 μM, up to 24 hours): no significant changes | apoptotic cells in 20× microscope field ([5]; 320 μM, 640 μM and 960 μM, after 1 h and 4 h): 1-5 | morphologic change ([5]; 320 μM, 640 μM and 960 μM, as early as 5 minutes): cell-cell connections were disrupted and the cells became round | IC50 ([5]; cornea endothelial cells, read-out: IC50 dose (cell viability assays)): 220 µM | doses that appear safe ([5]; corneal endothelial cells, in vitro): ≤ 80 µM | cell damage ([5]; doses above 80 μM, prolonged drug exposure): significant apoptosis and lysis | apoptosis in HCECs ([5]; high concentrations (e.g. 160 μM and 320 μM)): significantly induces apoptosis | amount crossing the corneal barrier, highest ([6]; 48th hour): 1.35% | amount crossing the corneal barrier, highest ([6]; 72nd hour): 1.89% | CEC telomere length, treated vs untreated eyes [7]: significant increase; also recorded: longer than those from untreated eyes | concentrations at which telomerase activity reached its highest level [8, 13]: 20 μM, 40 μM and 100 μM | starting concentration of telomerase activity increase [8, 13]: 2 µM | telomerase activity after 100 μM concentration [8, 13]: no higher telomerase activity | TAED017 activity, epithelial versus endothelial cells ([8]; human corneal epithelial cells vs HCEC B4-G12): higher in corneal epithelial cells | starting concentration of telomerase activity increase ([8]; printed in brackets after 2 μM): 100 ng/mL

CC(C)(O)[C@@H]1CC[C@](C)([C@H]2[C@@H](O)C[C@@]3(C)[C@@H]4C[C@H](O)[C@H]5C(C)(C)[C@@H](O)CC[C@@]56C[C@@]46CC[C@]23C)O1 [cycloastragenol, Cycloastragenol]
concentration in eye tissues ([3]; zero hour, after 5 days of eye drops, without last administration): below 1 ng | 2am Percentile Length ([9]; GROUP B, 25 ng/ml): 6,968 Base Pairs | Median Length ([9]; GROUP B, 25 ng/ml): 11,431 Base Pairs | Telomeres <3 Kbp ([9]; GROUP B, 25 ng/ml): 3.7% | 2am Percentile Length ([9]; GROUP C, 100 ng/ml): 7,374 Base Pairs | Median Length ([9]; GROUP C, 100 ng/ml): 11,543 Base Pairs | Telomeres <3 Kbp ([9]; GROUP C, 100 ng/ml): 3.1% | 2am Percentile Length ([9]; GROUP D, 500 ng/ml): 7,113 Base Pairs | Median Length ([9]; GROUP D, 500 ng/ml): 11,552 Base Pairs | Telomeres <3 Kbp ([9]; GROUP D, 500 ng/ml): 3.6% | % Telomerase Activity ± SD ([10]; 3.8 ng/ML): 108 ± 5.27% | % Telomerase Activity ± SD ([10]; 7.8 ng/ML): 114.42 ± 2.79% | % Telomerase Activity ± SD ([10]; 15.6 ng/ML): 148.94 ± 49.54% | % Telomerase Activity ± SD ([10]; 125 ng/ML): 43.14 ± 0.24% | % Telomerase Activity ± SD ([10]; 250 ng/ML): 46.28 ± 2.02% | % Telomerase Activity ± SD ([10]; 500 ng/ML): 54.38 ± 2.78% | % Telomerase Activity ± SD ([10]; 10000 ng/ML, placebo (1% DMSO) = 100%): 74.0 ± 10.45% | telomerase activity compared with negative control ([10]; 3.8-62.5 ng/ml): higher telomerase activity than negative control | telomerase activity, times higher than the negative control ([10]; 62.5-31.25 ng/ml): 7-10 times | telomerase activity compared with negative control ([10]; 125-1000 ng/ml): lower than negative control | concentration giving the highest activity of telomerase ([10]; HCEC-B4G12): 62.5 ng/mL | histopathological finding, corneal endothelium ([11]; Group B, 25 ng/ml, compared to group A): cell losses were observed in very few areas | histopathological finding, corneal endothelium ([11]; Group C, 100 ng/ml): configuration and number of cells were found to be close to Group NC | histopathological finding, corneal endothelium ([11]; Group D, 500 ng/ml, compared to Group B and Group C): more hypertrophic and place cell losses | Cell Density (CD) of cornea layer endothelial cells ([12]; Group B, 25 ng/ml, month 0): 2531.00 | Cell Density (CD) of cornea layer endothelial cells ([12]; Group B, 25 ng/ml, month 1): 2612.38 | change in cell density versus month 0 ([12]; Group B, 25 ng/ml, month 1): 3% | higher cell density than negative control group ([12]; Group B, 25 ng/ml, month 1): about 4% | higher cell density than placebo group ([12]; Group B, 25 ng/ml, month 1): about 4% | Cell Density (CD) of cornea layer endothelial cells ([12]; Group B, 25 ng/ml, month 3): 2604.50 | change in cell density versus month 0 ([12]; Group B, 25 ng/ml, month 3): 3% | higher cell density than negative control group ([12]; Group B, 25 ng/ml, month 3): ~18% | higher cell density than placebo group ([12]; Group B, 25 ng/ml, month 3): ~18% | Cell Density (CD) of cornea layer endothelial cells ([12]; Group B, 25 ng/ml, month 6): 2545.88 | change in cell density versus month 0 ([12]; Group B, 25 ng/ml, month 6): 4% | higher cell density than negative control group ([12]; Group B, 25 ng/ml, month 6): ~19% | higher cell density than placebo group ([12]; Group B, 25 ng/ml, month 6): ~20% | Cell Density (CD) of cornea layer endothelial cells ([12]; Group C, 100 ng/ml, month 0): 2689.88 | Cell Density (CD) of cornea layer endothelial cells ([12]; Group C, 100 ng/ml, month 1): 2741.13 | Cell Density (CD) of cornea layer endothelial cells ([12]; Group C, 100 ng/ml, month 3): 2453.88 | Cell Density (CD) of cornea layer endothelial cells ([12]; Group C, 100 ng/ml, month 6): 2472.38 | Cell Density (CD) of cornea layer endothelial cells ([12]; Group D, 500 ng/ml, month 0): 2875.13 | Cell Density (CD) of cornea layer endothelial cells ([12]; Group D, 500 ng/ml, month 1): 2835.38 | Cell Density (CD) of cornea layer endothelial cells ([12]; Group D, 500 ng/ml, month 3): 2498.50 | Cell Density (CD) of cornea layer endothelial cells ([12]; Group D, 500 ng/ml, month 6): 2488.88

From patent US20250268921A1, “OPTHALMIC FORMULATIONS AND USES THEREOF” (TelomEYE Pharmaceutical Corporation, priority 2018, published 2025)
